Reference: US20170143733A1, “COMPOUNDS AND METHODS FOR SKIN REPAIR” (Allergan, Inc., priority 2012, published 2017)

What was measured:
[1] = target: T1, EP2 (Homo sapiens, UniProt P43116); experiment: EP2 cAMP functional assay; format: cell-based
[2] = target: T1, EP2; experiment: EP2 binding assay (Ki)
[3] = target: T2, EP4 (Homo sapiens, UniProt P35408); experiment: EP4 cAMP functional assay; format: cell-based
[4] = target: T2, EP4; experiment: EP4 binding assay (Ki)
[5] = tested on: incisional wounds; experiment: Incisional skin wound model and assessment; format: in vivo, Sprague-Dawley rats; settings: rats, Day 7, topical 0.004% twice daily for 5 days, drug-treated, scale of 0 to 6, higher = severer scar
Text: Sprague-Dawley rats at 180-200 gram were anesthetized with isoflourane. After shaving, 2-cm long incisions were made on the left and right side of the back, reaching the deep fascia on the back skin of rats under sterile conditions. Incisional wounds were immediately closed with 4.0 sutures, and then topically treated with a vehicle or test drugs at 0.004% twice daily for 5 days. The vehicle used here contains ethanol 30%, propylene glycol 12%, dipropylene glycol 5%, benzyl alcohol 5%, glycerol 3% and normal saline 45%. Wounds were photographed on day 7. All photos were coded and scored by lay people. Evaluation of wound sites was based on scar width, palpability (elevation) of wound areas, and general progress in healing, using a scale of 0 to 6; the severer a scar, the higher the score. Each scar was divided into 4 regions, separated by suture sites; each quarter was scored independently; the mean of the 4 part scores was recorded as the overall scar score of each incision site.

T1 sequence (P43116 whole entry): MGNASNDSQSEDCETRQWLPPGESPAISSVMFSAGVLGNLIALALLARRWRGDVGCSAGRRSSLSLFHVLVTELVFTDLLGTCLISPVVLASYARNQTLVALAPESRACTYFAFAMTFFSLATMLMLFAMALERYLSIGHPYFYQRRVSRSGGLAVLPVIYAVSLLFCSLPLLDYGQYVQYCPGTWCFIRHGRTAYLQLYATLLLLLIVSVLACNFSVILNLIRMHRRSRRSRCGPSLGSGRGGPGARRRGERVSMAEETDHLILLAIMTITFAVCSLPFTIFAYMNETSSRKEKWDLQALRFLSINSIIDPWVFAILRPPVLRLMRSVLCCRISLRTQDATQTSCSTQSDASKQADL
T2 sequence (P35408 whole entry): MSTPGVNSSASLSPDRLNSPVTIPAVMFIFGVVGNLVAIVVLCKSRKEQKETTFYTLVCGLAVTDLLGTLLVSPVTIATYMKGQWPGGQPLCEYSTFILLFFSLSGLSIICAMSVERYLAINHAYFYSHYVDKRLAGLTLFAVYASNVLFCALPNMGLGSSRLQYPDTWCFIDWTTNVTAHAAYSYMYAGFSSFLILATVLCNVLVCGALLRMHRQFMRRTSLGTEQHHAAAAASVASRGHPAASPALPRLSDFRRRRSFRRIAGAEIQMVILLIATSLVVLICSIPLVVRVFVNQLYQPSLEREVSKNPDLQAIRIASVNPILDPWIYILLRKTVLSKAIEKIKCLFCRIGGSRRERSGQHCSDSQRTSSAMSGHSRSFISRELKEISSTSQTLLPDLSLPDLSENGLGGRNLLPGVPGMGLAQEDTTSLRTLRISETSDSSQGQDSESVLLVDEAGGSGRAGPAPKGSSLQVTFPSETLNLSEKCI

SMILES | EC50 [1] [nM] | IC50 [2] [nM] | EC50 [3] [nM] | IC50 [4] [nM] | Scar Scores [5]
O=C(O)CCCCCC[C@H]1C(=S)CCC[C@@H]1CCC(O)Cc1ccccc1 (stereo partly drawn) [Compound 1] | > 10000 | > 10000 | 0.9 | 81 | 
CC1(C)C(=O)[C@H](C/C=C\CCCC(=O)O)[C@@H](/C=C/[C@H](O)CCc2sc3ccccc3c2Cl)[C@@H]1O [Compound 2] | > 10000 |  | 0.3 | 7 | 0.60 ± 0.1
CCCCC[C@H](O)c1ccc(N2C(=O)CC[C@@H]2CCCc2ccc(C(=O)O)s2)cc1 [Compound 3] |  | 21 | > 10000 |  | 
O=C(O)c1ccc(CCCN2C(=O)CC[C@@H]2CC[C@@H](O)Cc2cccc(C(F)(F)F)c2)s1 [Compound 4] | 71 | 4650 |  |  | 0.76 ± 0.07
O=C(O)c1ccc(CC2Sc3c(Cl)cccc3N(Cc3ccccc3C(F)(F)F)C2=O)cc1 (stereo not drawn) [Compound 5] | 1.9 | 1 | 4 | 0.3 | 0.56 ± 0.07
